Experimental data: the supplement of paper PMC13380429

Assays:
Conditions in all cases: 72 h
[1] = system: Vero E6; experiment: cell viability relative to DMSO; higher = less toxic
[2] = system: U2OS; experiment: as above
[3] = system: Calu-3; experiment: as above
[4] = system: HepG2; experiment: as above
[5] = system: Caco-2; experiment: as above
[6] = system: Vero E6; experiment: relative viability EC50 (midpoint between 100% and the lowest measured viability); higher = less toxic
[7] = system: U2OS; experiment: as above
[8] = system: Calu-3; experiment: as above
[9] = system: HepG2; experiment: as above
[10] = system: Caco-2; experiment: as above
[11] = system: Vero E6; experiment: drug sensitivity score (DSS) for viability; higher = more toxic; extreme values may be limits of the assay
[12] = system: U2OS; experiment: as above
[13] = system: Calu-3; experiment: as above
[14] = system: HepG2; experiment: as above
[15] = system: Caco-2; experiment: as above

Structure (SMILES) | cell viability ([1]; 1 nM) [%] | cell viability ([1]; 10 nM) [%] | cell viability ([1]; 100 nM) [%] | cell viability ([1]; 1000 nM) [%] | cell viability ([1]; 10000 nM) [%] | cell viability ([2]; 1 nM) [%] | cell viability ([2]; 10 nM) [%] | cell viability ([2]; 100 nM) [%] | cell viability ([2]; 1000 nM) [%] | cell viability ([2]; 10000 nM) [%] | cell viability ([3]; 1 nM) [%] | cell viability ([3]; 10 nM) [%] | cell viability ([3]; 100 nM) [%] | cell viability ([3]; 1000 nM) [%] | cell viability ([3]; 10000 nM) [%] | cell viability ([4]; 1 nM) [%] | cell viability ([4]; 10 nM) [%] | cell viability ([4]; 100 nM) [%] | cell viability ([4]; 1000 nM) [%] | cell viability ([4]; 10000 nM) [%] | cell viability ([5]; 1 nM) [%] | cell viability ([5]; 10 nM) [%] | cell viability ([5]; 100 nM) [%] | cell viability ([5]; 1000 nM) [%] | cell viability ([5]; 10000 nM) [%] | relative viability EC50 [6] [nM] | relative viability EC50 [7] [nM] | relative viability EC50 [8] [nM] | relative viability EC50 [9] [nM] | relative viability EC50 [10] [nM] | drug sensitivity score [11] | drug sensitivity score [12] | drug sensitivity score [13] | drug sensitivity score [14] | drug sensitivity score [15]
CC[C@]1(O)C[C@@H]2CN(CCc3c([nH]c4ccccc34)[C@@](C(=O)OC)(c3cc4c(cc3OC)N(C)[C@H]3[C@@](O)(C(=O)OC)[C@H](OC(C)=O)[C@]5(CC)C=CCN6CC[C@]43[C@@H]65)C2)C1 [Vinblastine (sulfate)] | 100 | 91.3 | 48.8 | 30.1 | 18.1 | 96.1 | 48.1 | 24.9 | 19.6 | 16.8 | 87.5 | 64.9 | 50.5 | 41.6 | 34.3 | 99.3 | 43.9 | 34.7 | 32.5 | 34.8 | 90.3 | 56.8 | 44.4 | 43.9 | 27.7 | 68.8 | 7.1 | 10.5 | 5.3 | 10.5 | 20.6 | 31.8 | 22 | 27.8 | 24.1
CC[C@]1(O)C[C@H]2CN(CCc3c([nH]c4ccccc34)[C@@](C(=O)OC)(c3cc4c(cc3OC)N(C=O)[C@H]3[C@@](O)(C(=O)OC)[C@H](OC(C)=O)[C@]5(CC)C=CCN6CC[C@]43[C@@H]65)C2)C1 [Vincristine (sulfate)] | 98.9 | 102 | 82.9 | 34.2 | 29.8 | 97.1 | 80.8 | 35.4 | 19.5 | 17.6 | 88 | 78.2 | 54.8 | 39.6 | 34.6 | 109 | 68.4 | 39.2 | 35.4 | 36.9 | 91.9 | 66 | 42.5 | 41.4 | 34.8 | 196 | 30.2 | 24.8 | 10.2 | 9.4 | 14.4 | 24.7 | 19.1 | 24.3 | 23.3
COC(=O)c1ccc(N2CCN(C)CC2)c(NC(=O)c2cccc(OC)c2)c1 [WDR5-0103] | 94.6 | 98.2 | 94.2 | 102 | 103 | 98.5 | 94.8 | 96.8 | 95.5 | 101 | 98.9 | 93.4 | 99.5 | 97.4 | 97.8 | 102 | 114 | 85.5 | 112 | 102 | 88.8 | 97.5 | 91.7 | 99.9 | 89.8 | > 10000 | > 10000 | > 10000 | > 10000 | > 10000 | 0 | 0 | 0 | 0 | 0
C=CC(=O)Nc1cccc(Oc2nc(Nc3ccc(N4CCN(C)CC4)cc3)ncc2Cl)c1 [WZ-3146] | 104 | 99.3 | 106 | 59.9 | 7.8 | 97.6 | 100 | 95.5 | 72.1 | 0.2 | 95.9 | 89.9 | 86.4 | 36.9 | 2.3 | 108 | 100 | 109 | 75 | 38.7 | 90.7 | 100 | 99.3 | 78.3 | 11.6 | 1110 | 1460 | 539 | 1160 | 1560 | 10.3 | 9.7 | 13.9 | 6.7 | 8.3
CC(C)c1cc(CNc2nc(Nc3cc(C4CC4)[nH]n3)cc(N3CCN(C)CC3)n2)on1 [XL228] | 94 | 97.8 | 101 | 75.3 | 23 | 104 | 103 | 84.8 | 30 | 0 | 95.7 | 99.3 | 87.3 | 61.5 | 33.9 | 95.3 | 98.3 | 62.4 | 40.6 | 7.4 | 111 | 94.4 | 93 | 72.5 | 33.1 | 1350 | 470 | 593 | 266 | 1220 | 7.8 | 15.1 | 8.8 | 16.2 | 6.7
CC(=O)c1ccc(S(=O)(=O)NC(=O)NC2CCCCC2)cc1 [acetohexamide] | 92.7 | 98.2 | 97.1 | 98.9 | 110 | 95.1 | 98 | 96.6 | 96.3 | 96.9 | 91.8 | 112 | 90.2 | 107 | 104 | 99.5 | 103 | 106 | 113 | 106 | 97.1 | 85.8 | 90.7 | 75.4 | 83.1 | > 10000 | > 10000 | > 10000 | > 10000 | > 10000 | 0 | 0 | 0 | 0 | 3.7
